Assay results published in ChEMBL document CHEMBL1201862, “PubChem BioAssay data set” (2004).
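Briefly, cells in 96-well plates were exposed to five compound concentrations for 48 h, and endpoints were estimated by linear interpolation. GI50 marks 50% less growth.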 Active and inactive are the calls of the source. No stated cut-off is given here; in the data, active = GI50 up to about 1.1 µM and inactive = higher.

How the values were obtained:
Assay in all cases: NCI tumour cell line growth inhibition, 48 h
DU-145 = test system: DU-145
HCC 2998 = test system: HCC 2998
HL-60 = test system: HL-60
HT-29 = test system: HT-29
MDA-MB-435 = test system: MDA-MB-435
MDA-N = test system: MDA-N
NCI-H460 = test system: NCI-H460
RPMI-8226 = test system: RPMI-8226
RXF 393 = test system: RXF 393
SF-268 = test system: SF-268
SK-MEL-2 = test system: SK-MEL-2
SK-OV-3 = test system: SK-OV-3
SN12C = test system: SN12C
SNB-19 = test system: SNB-19
SW-620 = test system: SW-620
U-251 = test system: U-251
UACC-257 = test system: UACC-257
UO-31 = test system: UO-31
Malme-3M = test system: Malme-3M

Compound | GI50 (DU-145) | GI50 (HCC 2998) | GI50 (HL-60) | GI50 (HT-29) | GI50 (MDA-MB-435) | GI50 (MDA-N) | GI50 (NCI-H460) | GI50 (RPMI-8226) | GI50 (RXF 393) | GI50 (SF-268) | GI50 (SK-MEL-2) | GI50 (SK-OV-3) | GI50 (SN12C) | GI50 (SNB-19) | GI50 (SW-620) | GI50 (U-251) | GI50 (UACC-257) | GI50 (UO-31) | GI50 (Malme-3M)
Cc1csc2n(C)c(=O)c3ccccc3[n+]12 | > 100 µM (inactive) | > 100 µM (inactive) | > 100 µM (inactive) | > 100 µM (inactive) | > 100 µM (inactive) | > 100 µM (inactive) | > 100 µM (inactive) | > 100 µM (inactive) | > 100 µM (inactive) | > 100 µM (inactive) | > 100 µM (inactive) | > 100 µM (inactive) | > 100 µM (inactive) | > 100 µM (inactive) | > 100 µM (inactive) | > 100 µM (inactive) | > 100 µM (inactive) | > 100 µM (inactive) | 
COc1ccc(CC2NC(=O)/C=C/CC(C(C)C3OC3c3ccccc3)OC(=O)C(CC(C)C)OC(=O)C(C)CNC2=O)cc1Cl (configuration not stated) | 1.21e-05 µM (active) | 3.07e-05 µM (active) | < 1e-05 µM (active) | < 1e-05 µM (active) | < 1e-05 µM (active) | < 1e-05 µM (active) | < 1e-05 µM (active) | 3.62e-05 µM (active) | < 1e-05 µM (active) | 4.55e-05 µM (active) | 0.001 µM (active) | 6.68e-05 µM (active) | 2.38e-05 µM (active) |  | 1.36e-05 µM (active) | 2.56e-05 µM (active) | 4.07e-05 µM (active) |  | 
S=C=NC1CCC(c2cc3ccccc3s2)(N2CCCCC2)CC1 (configuration not stated) | 2.08 µM (inactive) | 1.8 µM (inactive) | 1.31 µM (inactive) | 1.77 µM (inactive) | 1.62 µM (inactive) | 1.77 µM (inactive) | 1.87 µM (inactive) | 1.46 µM (inactive) | 1.72 µM (inactive) | 2.08 µM (inactive) |  | 2.22 µM (inactive) | 1.82 µM (inactive) | 2.79 µM (inactive) | 2.02 µM (inactive) |  | 1.73 µM (inactive) | 2.19 µM (inactive) | 1.61 µM (inactive)
CC/C(N)=N\NC(=O)OC(C)(C)C | > 100 µM (inactive) | > 100 µM (inactive) | > 100 µM (inactive) | > 100 µM (inactive) | > 100 µM (inactive) | > 100 µM (inactive) |  | > 100 µM (inactive) | > 100 µM (inactive) | > 100 µM (inactive) | > 100 µM (inactive) | > 100 µM (inactive) | > 100 µM (inactive) | > 100 µM (inactive) | > 100 µM (inactive) | > 100 µM (inactive) | > 100 µM (inactive) | > 100 µM (inactive) | > 100 µM (inactive)
COc1cc2c(c(O)c1OC)C(=O)C1CCC(=O)N1C2c1cccc2ccccc12 (configuration not stated) | > 100 µM (inactive) |  | 20.6 µM (inactive) | 42.5 µM (inactive) | 44.5 µM (inactive) | 40.8 µM (inactive) | 32.3 µM (inactive) | 20.7 µM (inactive) | 21.4 µM (inactive) | 57.8 µM (inactive) | 50.7 µM (inactive) | 18.7 µM (inactive) | 77.4 µM (inactive) | 41.9 µM (inactive) | 39.7 µM (inactive) | 37.4 µM (inactive) | 30.1 µM (inactive) | 31.3 µM (inactive) | 81.8 µM (inactive)
Cc1cc(=O)oc2c(CNC(CO)C(=O)O)c(O)ccc12 (configuration not stated) | > 100 µM (inactive) |  | > 100 µM (inactive) | > 100 µM (inactive) | > 100 µM (inactive) | > 100 µM (inactive) | > 100 µM (inactive) | > 100 µM (inactive) | > 100 µM (inactive) | > 100 µM (inactive) | > 100 µM (inactive) | > 100 µM (inactive) | > 100 µM (inactive) | > 100 µM (inactive) | > 100 µM (inactive) | > 100 µM (inactive) | > 100 µM (inactive) | 73.1 µM (inactive) | > 100 µM (inactive)
N#CC1=C(S)N(C2OC(CO)C(O)C(O)C2O)C(c2ccccc2)=CC1c1ccccc1 (configuration not stated) | > 100 µM (inactive) | 18.5 µM (inactive) | 40.9 µM (inactive) | 48.9 µM (inactive) | 39.9 µM (inactive) | 37.2 µM (inactive) | 37.6 µM (inactive) | 46.5 µM (inactive) | 25.2 µM (inactive) | 56.5 µM (inactive) | 6.53 µM (inactive) |  | 72.4 µM (inactive) | 64.6 µM (inactive) | 5.66 µM (inactive) | 43 µM (inactive) | 51.6 µM (inactive) | > 100 µM (inactive) | 52.1 µM (inactive)
Cc1cn(C2CC(O)C(Cn3nncc3Cn3nc(Br)c(=O)[nH]c3=O)O2)c(=O)[nH]c1=O (configuration not stated) | > 100 µM (inactive) | > 100 µM (inactive) |  |  | > 100 µM (inactive) | > 100 µM (inactive) |  | > 100 µM (inactive) | > 100 µM (inactive) | > 100 µM (inactive) | > 100 µM (inactive) | > 100 µM (inactive) | > 100 µM (inactive) | > 100 µM (inactive) | > 100 µM (inactive) | > 100 µM (inactive) | > 100 µM (inactive) | > 100 µM (inactive) | > 100 µM (inactive)
COC(=O)[C@H](Cc1c[nH]c2ccccc12)NC(=O)c1ccc(CNC(=O)/C=C/c2cccc(Oc3ccccc3)c2)cc1 | > 100 µM (inactive) | 89.9 µM (inactive) |  | > 100 µM (inactive) | 5.7 µM (inactive) | 5.38 µM (inactive) | 83 µM (inactive) | 62.4 µM (inactive) | 7.73 µM (inactive) | > 100 µM (inactive) | 18.9 µM (inactive) | > 100 µM (inactive) | > 100 µM (inactive) | 91.6 µM (inactive) | > 100 µM (inactive) | > 100 µM (inactive) | 15.7 µM (inactive) | > 100 µM (inactive) | 22.8 µM (inactive)
CCN(CC)CCO/N=C1/C=C2CCC3C(CC[C@@]4(C)C3CC[C@]4(C)O)[C@@]2(C)CC1 (some centres not stated) | 6.37 µM (inactive) | 5.22 µM (inactive) |  | 1.82 µM (inactive) | 1.69 µM (inactive) | 2.49 µM (inactive) | 3.41 µM (inactive) | 4.28 µM (inactive) | 15.5 µM (inactive) | 8.09 µM (inactive) | 11.2 µM (inactive) | 14.3 µM (inactive) | 4.15 µM (inactive) | 11.6 µM (inactive) |  | 3.44 µM (inactive) | 4.9 µM (inactive) | 5.41 µM (inactive) | 3.64 µM (inactive)
COc1ccc(C(=O)/C=C/c2ccc(Oc3cc(C(=O)/C=C/c4ccc(O)cc4)c(O)cc3OC)cc2)c(O)c1 [RHUSCHALCONE I] | 5.96 µM (inactive) |  | 3.08 µM (inactive) | 2.23 µM (inactive) | 3.55 µM (inactive) | 3.48 µM (inactive) | 4.33 µM (inactive) | 1.85 µM (inactive) | 2.56 µM (inactive) | 5.19 µM (inactive) | 8.57 µM (inactive) | 9.86 µM (inactive) | 3.74 µM (inactive) | 8.3 µM (inactive) | 4.72 µM (inactive) | 3.79 µM (inactive) | 25.5 µM (inactive) | 3.59 µM (inactive) | 17.2 µM (inactive)
